# Measurements: patent publication US20130337070A1, “Coated Nanoparticle Therapy for Skin Cancer” (University of Central Florida Research Foundation Inc., priority 2012, published 2013)
# Experiments:
# Caveolin-1 = Caveolin-1 expression, western blot; assay type: cell-based, human; details: for caveolin-1 expression after pretreatment, compared to CNP treated cells: melanoma cells pretreated with N-acetyl-L-cysteine (4 h) or apocynin (1 h), then CNP
# Procedure: FIG. 6 Expression of Caveolin-1 in melanoma cells. […] H2O2 was used as a positive control and a-tubulin as a loading control. Three independent experiments were performed.
# A375 melanoma cells [1] = experiment: Extracellular hydrogen peroxide (Amplex Red); assay type: cell-based, human; details: A375, 1 h pre-incubation with 1 mM apocynin prior to CNP; 24 and 48 h
# Procedure: The Amplex Red reagent (10-acetyl-3,7-dihydroxyphenoaxine), in combination with horseradish peroxidase (HRP), can be used to detect hydrogen peroxide released from cells. H2O2-mediated oxidation of the reagent results in the fluorescent product resorufin. Subconfluent A375 tumor cells were treated with 150 μM CNP or pre-incubated with 1 mM apocynin in serumfree DMEM in 96-well plates for different time points. […] Furthermore, the generation of intracellular ROS was determined using 2?,7?-Dichlorodihydrofluorescein diacetate (H2DCF-DA), a dye that diffuses across the lipid membranes into cells and is subsequently oxidized by intracellular ROS forming the highly fluorescent DCF.
# A375 melanoma cells [2] = experiment: Intracellular ROS (DCF fluorescence), melanoma cells; details: A375, 5 μM doxorubicin, DCF over 90 min
# [3] = test system: human dermal fibroblasts (HDF); experiment: Intracellular ROS (DCF fluorescence), fibroblasts; details: 150 μM CNP or 5 μM doxorubicin, DCF over 90 min
# caspase-3 = experiment: Caspase-3 activity assay; assay type: cell-based, human; details: melanoma cells, 100 nM staurosporine 24 h, positive control
# Procedure: Cell pellets were suspended in cell lysis buffer and incubated on ice for 45 min. The lysate was vortexed every 15 min. After centrifugation at 11000×g for 15 min, supernatants were collected and immediately measured for protein concentration and caspase activity. Briefly, cell lysates (20 μg protein) were placed in 96-well plates and then the specific caspase substrate (Ac-DEVD-AMC for caspase-3) was added. Plates were incubated at 37° C. for 1 h and caspase activity was determined by fluorescence intensity with the excitation and emission wavelengths set at 380 nm and 440 nm, respectively.
# [4] = test system: human dermal fibroblasts (HDF)
# Procedure: (§1) The activity of mitochondrial dehydrogenases, as indicator of cellular viability, results in the formation of a purple formazan dye. […] The medium was removed and the cells were lysed in dimethyl sulfoxide. The formazan formation was measured at 570 nm.
# [5] = test system: human endothelial cells (HMEC-1)
# Procedure: as §1
# A375 melanoma cells [6] = experiment: Oxidized thiol groups (sulfenic acid), western blot; details: A375, 150 μM CNP 24 h or 1 mM H2O2 2 h, vs dimedone treated controls
# A375 melanoma cells [7] = experiment: Carbonylated proteins in cells (OxyBlot); details: A375, 150 μM CNP 4-48 h or 250 μM H2O2
# cytochrome c = experiment: Cytosolic cytochrome c, western blot; details: A375; CNP 12 and 24 h; H2O2 1 h; vs mock-treated controls
compound,measurement,setting,value
CC(=O)N[C@@H](CS)C(=O)O [N-acetyl-L-cysteine],"caveolin-1 expression after pretreatment, compared to CNP treated cells",Caveolin-1,increased caveolin-1 expression
COc1cc(C(C)=O)ccc1O [apocynin],CNP mediated hydrogen peroxide generation after apocynin pre-incubation,A375 melanoma cells [1],downregulated
same,"caveolin-1 expression after pretreatment, compared to CNP treated cells",Caveolin-1,increased caveolin-1 expression
COc1cccc2c1C(=O)c1c(O)c3c(c(O)c1C2=O)C[C@@](O)(C(=O)CO)C[C@@H]3O[C@H]1C[C@H](N)[C@H](O)[C@H](C)O1 [doxorubicin],intracellular ROS level,A375 melanoma cells [2],significantly increased
same,intracellular ROS level,[3],significantly increased
CN[C@@H]1C[C@H]2O[C@@](C)([C@@H]1OC)n1c3ccccc3c3c4c(c5c6ccccc6n2c5c31)C(=O)NC4 [staurosporine],caspase-3 activity,caspase-3,increased
dextran-coated cerium oxide nanoparticles [CNP],cell viability,[4],not altered
same,cell viability,[5],not altered
"OO [H2O2, hydrogen peroxide]",oxidized thiols (sulfenic acid),A375 melanoma cells [6],similarlevel
same,amount of carbonylated proteins vs mock-treated cells,A375 melanoma cells [7],significantly increased
same,cytosolic cytochrome c,cytochrome c,significant increase
same,Cav-1 expression vs mock-treated control,"Caveolin-1; melanoma cells, CNP for 1 h, H2O2 for 1 h and 4 h",completely abrogated
